Here are results for five compounds from patent publication US12358951.

Read-outs that look alike come from different tables or passages of the source.

The conditions of this data set: amide bond, THF.

On to `CCCCCCN1C[C@@H](CCF)NC(=O)[C@H]([C@H](C)OCc2ccccc2)NC(=O)[C@H](CNC(=O)OCc2ccccc2)NC(=O)[C@H](C2CCCCC2)NC(=O)[C@H](CC(C)C)N(C)C(=O)[C@@H]1C`, for which the ring closure, yield of all isomers (from CCCCCCN(C[C@H](N)CCF)[C@@H](C)C(=O)N(C)[C@@H](CC(C)C)C(=O)N[C@H](C(=O)N[C@@H](CNC(=O)OCc1ccccc1)C(=O)N[C@H](C(=O)O)[C@H](C)OCc1ccccc1)C1CCCCC1, HATU/DIPEA, 1.36 mM, 25.0 °C, 20.0 h) was found to be 43.4%. Consider `CCCCCC[C@H]1OC[C@@H](C)NC(=O)[C@H](COC2CC3(C2)CN(C(=O)OC(C)(C)C)C3)NC(=O)[C@H](CNC(=O)OCc2ccccc2)NC(=O)[C@H](C2CCCCCC2)NC(=O)[C@H](CCC)N(C)C(=O)[C@@H]1C`, for which the ring closure, yield of all isomers (from CCCCCC[C@@H](OC[C@@H](C)N)[C@@H](C)C(=O)N(C)[C@@H](CCC)C(=O)N[C@H](C(=O)N[C@@H](CNC(=O)OCc1ccccc1)C(=O)N[C@@H](COC1CC2(C1)CN(C(=O)OC(C)(C)C)C2)C(=O)O)C1CCCCCC1, HATU, DIPEA, 1.35 mM, 25.0 °C, 2.5 h) was 39%. With `CC[C@@H]1CN(CC2CCCC2)[C@@H](C)C(=O)N(C)[C@@H](CC(C)C)C(=O)N[C@@H](C2CCCCC2)C(=O)N[C@@H](CNC(=O)OCc2ccccc2)C(=O)N[C@@H]([C@H](C)OCc2ccccc2)C(=O)N1`, the ring closure, yield of all isomers (from CC[C@@H](N)CN(CC1CCCC1)[C@@H](C)C(=O)N(C)[C@@H](CC(C)C)C(=O)N[C@H](C(=O)N[C@@H](CNC(=O)OCc1ccccc1)C(=O)N[C@H](C(=O)O)[C@H](C)OCc1ccccc1)C1CCCCC1, HATU, DIPEA, 1.24 mM, 25.0 °C, 2.5 h) was determined as 45.7%.

As for `CCCCCC[C@H]1OC[C@@H](C)NC(=O)[C@H](CNC(=O)OC(C)(C)C)NC(=O)[C@H](CNC(=O)OCc2ccccc2)NC(=O)[C@H](C2CCCCC2)NC(=O)[C@H](CC(C)C)N(C)C(=O)[C@@H]1C`, where the note is “from CCCCCC[C@@H](OC[C@@H](C)N)[C@@H](C)C(=O)N(C)[C@@H](CC(C)C)C(=O)N[C@H](C(=O)N[C@@H](CNC(=O)OCc1ccccc1)C(=O)N[C@@H](CNC(=O)OC(C)(C)C)C(=O)O)C1CCCCC1, HATU/DIPEA, 1.08 mM, 25.0 °C, 16.0 h”, the ring closure, yield of all isomers is 55%. Compound `CCCC[C@H]1C(=O)N(C)[C@@H](CC(C)C)C(=O)N[C@@H](C2CCCCC2)C(=O)N[C@@H](CNC(=O)OCc2ccccc2)C(=O)N[C@@H](COCCCNC(=O)OC(C)(C)C)C(=O)N[C@H](C)CN1CC1CC1` displayed a ring closure, yield of all isomers (from CCCC[C@@H](C(=O)N(C)[C@@H](CC(C)C)C(=O)N[C@H](C(=O)N[C@@H](CNC(=O)OCc1ccccc1)C(=O)O)C1CCCCC1)N(CC1CC1)C[C@@H](C)NC(=O)[C@@H](N)COCCCNC(=O)OC(C)(C)C, HATU/DIPEA, 1.14 mM, 19.0 h) of 30%.
